Earlier results on 1 substance are cited in publication PMC10799843 (Molecular pharmaceutics, 2023).

The subject of this series is denatured collagen. The conditions noted are these: control scrambled peptide.

For “Cy5.5-KGGG-OfGGOfGfGfOfOGOfGOOfGGOOffG [^SCHP]”, the Collagen binding affinity result is “lacking in collagen binding affinity”.
